Test results as given in patent US3976779A, “1,2,3,4-Tetrahydro-carbazole compounds and β-adrenergic compositions” (Boehringer Mannheim G.m.b.H., priority 1974, dated 1976).

Columns and labels:
cardiac β-receptor = experiment: Blocking of isoprenalin tachycardia in wake rabbits (β-receptor blocking activity); conditions: for Therapeutic Index (LD50:DE250): LD50 mouse i.v. : DE250 wake rabbit i.v.; for DE250: wake rabbits, interpolated dosage which limits frequency increase to 250 beats/min, 15 min i.v. infusion, isoprenalin i.v. 30 min after infusion
Method: (§1) The following tests were carried out to determine the toxicity and the cardiac β-receptor blocking activity of certain test compounds by determining the inhibition of the heart beat frequency increase induced by intravenous administration of isoprenalin.
The β-receptor blocking activity of the test compounds was tested on wake rabbits weighing between 2 to 3.5 kg. and kept in wooden cages. EKG-electrodes were inserted into the hind quarters of the rabbits s.c. (II. lead) and the heart frequency was measured based on 20 heart beats. The test compounds were then infused through a small tube to the ear vein of the rabbits over a period of 15 minutes. 30 minutes after the infusion isoprenalin (3,4-dihydro-a-[(isopropylamino)-methyl]-benzylalcohol) was injected intravenously at 1 /ug/kg.

in vivo = conditions: iv, mouse, i.v., dosage at which 50% of the mice die, read-out: Acute Toxicity LD50 Mouse
Method: as §1

| Structure (SMILES) | Therapeutic Index (LD50:DE250) (cardiac β-receptor) | DE250 (cardiac β-receptor) [mg/kg i.v.] | LD50 (in vivo) [mg/kg] |
| --- | --- | --- | --- |
| CC(C)NCC(O)COc1cccc2[nH]c3c(c12)CCCC3 (stereo not shown) [Compound I, 1,2,3,4-Tetrahydro-5-(2-hydroxy-3-isopropylamino-propoxy)-carbazole] | ~ 200 | 0.040 | ~8 |
| CC(C)NCC(O)COc1cccc2ccccc12 (stereo not shown) [Compound A, 1-Isopropylamino-3-(1-napthoxy)-2-propanol, reference compound] |  | 0.400 |  |
| CC(C)(C)NCC(O)COc1cccc2[nH]c3c(c12)CCCC3 (stereo not shown) [Compound II, 1,2,3,4-Tetrahydro-5-(2-hydroxy-3-tert. butylaminopropoxy)-carbazole] | 875 | 0.008 | 7 |
